Test results from the CheMixHub viscosity set.
± gives the uncertainty stated by the source.

Assay: xn = mol fraction of the nth substance listed
Conditions: 100 kPa

CS(=O)(=O)O + O
viscosity [mPa·s]
Conditions	293.15 K	298.15 K	303.15 K	308.15 K	313.15 K	318.15 K
x1 = 0.003409	1.037 ± 0.1	0.9229 ± 0.093	0.827 ± 0.083	0.7471 ± 0.075	–	–
x1 = 0.004307	1.042 ± 0.1	0.9279 ± 0.093	0.833 ± 0.084	–	–	–
x1 = 0.005194	1.051 ± 0.11	0.9391 ± 0.094	0.8431 ± 0.085	–	–	–
x1 = 0.006086	1.064 ± 0.11	0.9475 ± 0.095	0.8496 ± 0.085	–	–	–
x1 = 0.006979	1.073 ± 0.11	0.9565 ± 0.096	0.8598 ± 0.086	–	–	–
x1 = 0.007862	1.08 ± 0.11	0.964 ± 0.097	0.866 ± 0.087	–	–	–
x1 = 0.008752	1.088 ± 0.11	0.972 ± 0.097	0.873 ± 0.088	–	–	–
x1 = 0.0177	1.173 ± 0.12	1.048 ± 0.11	0.9423 ± 0.095	0.8535 ± 0.086	0.7777 ± 0.078	0.713 ± 0.072
x1 = 0.02629	1.264 ± 0.13	1.131 ± 0.11	1.02 ± 0.1	0.9254 ± 0.093	0.8437 ± 0.085	0.7737 ± 0.078
x1 = 0.03475	1.351 ± 0.14	1.211 ± 0.12	1.094 ± 0.11	0.9939 ± 0.1	0.9081 ± 0.091	0.834 ± 0.084
x1 = 0.04308	1.441 ± 0.14	1.293 ± 0.13	1.169 ± 0.12	1.064 ± 0.11	0.9738 ± 0.098	0.8939 ± 0.09
x1 = 0.05122	1.523 ± 0.15	1.368 ± 0.14	1.237 ± 0.12	1.126 ± 0.11	1.031 ± 0.1	0.948 ± 0.095
x1 = 0.05919	1.609 ± 0.16	1.448 ± 0.15	1.311 ± 0.13	1.193 ± 0.12	1.094 ± 0.11	1.007 ± 0.1
x1 = 0.06721	1.728 ± 0.17	1.556 ± 0.16	1.41 ± 0.14	1.285 ± 0.13	1.176 ± 0.12	1.083 ± 0.11
x1 = 0.07493	1.826 ± 0.18	1.647 ± 0.17	1.493 ± 0.15	1.361 ± 0.14	1.247 ± 0.12	1.148 ± 0.12
x1 = 0.08256	1.934 ± 0.19	1.745 ± 0.17	1.583 ± 0.16	1.444 ± 0.14	1.323 ± 0.13	1.218 ± 0.12
x1 = 0.09015	2.046 ± 0.21	1.847 ± 0.19	1.676 ± 0.17	1.529 ± 0.15	1.402 ± 0.14	1.291 ± 0.13
x1 = 0.09748	2.16 ± 0.22	1.95 ± 0.2	1.769 ± 0.18	1.615 ± 0.16	1.48 ± 0.15	1.363 ± 0.14
x1 = 0.1048	2.299 ± 0.23	2.076 ± 0.21	1.885 ± 0.19	1.719 ± 0.17	1.576 ± 0.16	1.452 ± 0.15
x1 = 0.112	2.411 ± 0.24	2.177 ± 0.22	1.977 ± 0.2	1.803 ± 0.18	1.652 ± 0.17	1.519 ± 0.15
